Measured values taken from patent publication US9809587B2, “Pesticidally active heterocyclic derivatives with sulphur containing substituents” (Syngenta Participations AG, priority 2014, dated 2017).

Experiments:
Assay type in all cases: in vivo
[1] = tested on: Spodoptera littoralis (Egyqptian Cotton Leaf Worm); experiment: Spodoptera littoralis (Egyptian cotton leaf worm), sprayed cotton leaf discs; conditions: foliar, 72 h, application rate of 200 ppm, L1 larvae on cotton leaf discs, 3 days after infestation
Experimental: Example B7: Spodoptera littoralis (Egyqptian Cotton Leaf Worm)
Cotton leaf discs were placed on agar in 24-well microtiter plates and sprayed with aqueous test solutions prepared from 10′000 ppm DMSO stock solutions. After drying the leaf discs were infested with five L1 larvae. The samples were assessed for mortality, anti-feedant effect, and growth inhibition in comparison to untreated samples 3 days after infestation. Control of Spodoptera littoralis by a test sample is when at least one of mortality, anti-feedant effect, and growth inhibition is higher than the untreated sample.

[2] = tested on: Diabrotica balteata (Corn Root Worm); experiment: Diabrotica balteata (corn root worm), sprayed maize sprouts; conditions: 96 h, application rate of 200 ppm, L2 larvae on maize sprouts, 4 days after infestation
Experimental: Example B2: Diabrotica balteata (Corn Root Worm)
Maize sprouts, placed on an agar layer in 24-well microtiter plates were treated with aqueous test solutions prepared from 10′000 ppm DMSO stock solutions by spraying. After drying, the plates were infested with L2 larvae (6 to 10 per well). The samples were assessed for mortality and growth inhibition in comparison to untreated samples 4 days after infestation.

[3] = tested on: Plutella xylostella (Diamond Back Moth); experiment: Plutella xylostella (diamond back moth), treated artificial diet; conditions: 120 h, application rate of 200 ppm, L2 larvae on artificial diet, 5 days after infestation, read-out: effect in at least one of the two categories (mortality or growth inhibition)
Experimental: Example B6: Plutella xylostella (Diamond Back Moth)
24-well microtiter plates with artificial diet were treated with aqueous test solutions prepared from 10′000 ppm DMSO stock solutions by pipetting. After drying, the plates were infested with L2 larvae (10 to 15 per well). The samples were assessed for mortality and growth inhibition in comparison to untreated samples 5 days after infestation.
The following compounds gave an effect of at least 80% in at least one of the two categories (mortality or growth inhibition) at an application rate of 200 ppm: […]

[4] = tested on: Myzus persicae (Green Peach Aphid); experiment: Myzus persicae (green peach aphid), sprayed sunflower leaf discs; conditions: foliar, 144 h, application rate of 200 ppm, mixed ages on sunflower leaf discs, 6 days after infestation
Experimental: Example B4: Myzus persicae (Green Peach Aphid)
Sunflower leaf discs were placed on agar in a 24-well microtiter plate and sprayed with aqueous test solutions prepared from 10′000 ppm DMSO stock solutions. After drying, the leaf discs were infested with an aphid population of mixed ages. The samples were assessed for mortality 6 days after infestation.

[5] = tested on: Euschistus heros (Neotropical Brown Stink Bug); experiment: Euschistus heros (neotropical brown stink bug), sprayed soybean leaf; conditions: 120 h, application rate of 200 ppm, N-2 nymphs on soybean leaf, 5 days after infestation
Experimental: Example B3: Euschistus heros (Neotropical Brown Stink Bug)
Soybean leaf on agar in 24-well microtiter plates were sprayed with aqueous test solutions prepared from 10′000 ppm DMSO stock solutions. After drying the leaf were infested with N-2 nymphs. The samples were assessed for mortality in comparison to untreated samples 5 days after infestation.

| Structure (SMILES) | percent control (mortality, anti-feedant effect or growth inhibition) at 200 ppm [1] [%] | mortality at 200 ppm [2] [%] | percent effect (mortality or growth inhibition) at 200 ppm [3] [%] | mortality at 200 ppm [4] [%] | mortality at 200 ppm [5] [%] |
| --- | --- | --- | --- | --- | --- |
| CCS(=O)(=O)c1cc(-c2cncc3ccccc23)cnc1-c1nc2cc(C(F)(F)F)ncc2n1C [Compound P7] | ≥ 80 | ≥ 80 | ≥ 80 | – | – |
| CCSc1cc(-n2nc(C)cc2C)cnc1-c1nc2cc(C(F)(F)F)ncc2n1C [Compound P13] | – | ≥ 80 | – | – | – |
| CCSc1cc(-n2cc(Cl)cn2)cnc1-c1nc2cc(C(F)(F)F)ncc2n1C [Compound P14, 2-[5-(4-chloropyrazol-1-yl)-3-ethylsulfanyl-2-pyridyl]-3-methyl-6-(trifluoromethyl)imidazo[4,5-c]pyridine] | ≥ 80 | ≥ 80 | ≥ 80 | – | – |
| CCS(=O)(=O)c1cc(-n2ncc3ccccc32)cnc1-c1nc2cc(C(F)(F)F)ncc2n1C [Compound P24] | ≥ 80 | – | ≥ 80 | – | – |
| CCS(=O)(=O)c1cc(-n2nc(C(F)(F)F)cc2-c2ccc(F)cc2)cnc1-c1nc2cc(C(F)(F)F)ncc2n1C [Compound P28] | ≥ 80 | ≥ 80 | ≥ 80 | – | – |
| CCS(=O)(=O)c1cc(-n2ncc3cnc(C(F)(F)F)cc32)cnc1-c1nc2cc(C(F)(F)F)ncc2n1C [Compound P29] | ≥ 80 | ≥ 80 | ≥ 80 | – | – |
| CCS(=O)(=O)c1cc(-c2c(C(F)(F)F)n[nH]c2C)cnc1-c1nc2cc(C(F)(F)F)ncc2n1C [Compound P30] | – | ≥ 80 | – | ≥ 80 | ≥ 80 |
| CCS(=O)(=O)c1cc(-c2ccc3nccn3c2C)cnc1-c1nc2cc(C(F)(F)F)ncc2n1C [Compound P42] | – | – | – | ≥ 80 | ≥ 80 |
| CCS(=O)(=O)c1cc(-c2sccc2C)cnc1-c1nc2cc(C(F)(F)F)ncc2n1C [Compound P48] | ≥ 80 | ≥ 80 | ≥ 80 | – | – |
| CCS(=O)(=O)c1cc(-c2ccc3ccccc3n2)cnc1-c1nc2cc(C(F)(F)F)ncc2n1C [Compound P62] | – | – | ≥ 80 | ≥ 80 | ≥ 80 |
| CCS(=O)(=O)c1cc(-c2ccncc2C#N)cnc1-c1nc2cc(C(F)(F)F)ncc2n1C [Compound P73] | – | ≥ 80 | ≥ 80 | ≥ 80 | ≥ 80 |
| CCS(=O)(=O)c1cc(-c2ccc(SC)nc2)cnc1-c1nc2cc(C(F)(F)F)ncc2n1C [Compound P75] | – | ≥ 80 | ≥ 80 | ≥ 80 | ≥ 80 |
| CCS(=O)(=O)c1cc(-c2ccc3[nH]c(=O)[nH]c3c2)cnc1-c1nc2cc(C(F)(F)F)ncc2n1C [Compound P76] | – | ≥ 80 | – | – | – |
| CCS(=O)(=O)c1cc(-c2cc(C)oc2C#N)cnc1-c1nc2cc(C(F)(F)F)ncc2n1C [Compound P78] | – | ≥ 80 | – | ≥ 80 | – |
| CCS(=O)(=O)c1cc(-c2cnc(O)nc2O)cnc1-c1nc2cc(C(F)(F)F)ncc2n1C [Compound P79] | – | – | ≥ 80 | – | – |
| CCS(=O)(=O)c1cc(-c2ccnc(C#N)c2)cnc1-c1nc2cc(C(F)(F)F)ncc2n1C [Compound P99] | – | ≥ 80 | ≥ 80 | – | ≥ 80 |
| CCS(=O)(=O)c1cc(-c2ccnc(C#N)n2)cnc1-c1nc2cc(C(F)(F)F)ncc2n1C [Compound P107] | ≥ 80 | ≥ 80 | ≥ 80 | – | – |
